Here are results for one molecule from patent US20140275276A1, “PHARMACEUTICAL COMPOSITION OF S-KETAMINE HYDROCHLORIDE” (JANSSEN PHARMACEUTICA NV, priority 2013, published 2014).

Holding throughout (assay type): cell-based
One test has as its system Aspergillus brasiliensis. The experiment in a line: Microbial challenge test / Full AET challenge test. The settings on record: spike 10^5-10^6 CFU/ml, 28 days of incubation at room temperature. From the text:
(§1) A challenge test was initiated to investigate whether the formulation could prevent microorganisms from proliferating. The challenge test consisted of challenging the formulation with a prescribed inoculum of microorganisms. The inoculated formulation was then stored at room temperature and at specified time intervals a sample was withdrawn to count the microorganisms in the sample.
(§2) The formulations listed in Table 3 were additionally subjected to a Full AET challenge, with results for the individual formulations are shown in Tables 5-8, below. Additionally, Table 9 below, provides results for a Full AET challenge of a reference formulation containing 0.00 mg/mL S-ketamine hydrochloride, denatonium benzoate (to mimic the taste of the S-ketamine HCl formulation(s)), and adjusted to pH 5.21 with 1N NaOH.

In the next test the test system is Candida albicans. The experiment in a line: Microbial challenge test / Full AET challenge test. The settings on record: spike 10^5-10^6 CFU/ml, room temperature.
Excerpt: as §1, §2

A further test deals with Escherichia coli. In words: Microbial challenge test / Full AET challenge test. The settings on record: spike 10^5-10^6 CFU/ml, room temperature.
Excerpt: as §1, §2

The test system of the next test is Pseudomonas aeruginosa. The experiment in a line: Microbial challenge test / Full AET challenge test. The conditions noted are these: spike 10^5-10^6 CFU/ml, room temperature.
Excerpt: as §1, §2

Another test concerns Staphylococcus aureus. The experiment in a line: Microbial challenge test / Full AET challenge test. The conditions noted are these: spike 10^5-10^6 CFU/ml, room temperature.
Excerpt: as §1, §2

For test [1], the system named is environmental isolate Staphylococcus haemolyticus. In words: Microbial challenge test. The conditions noted are these: spike 10^5-10^6 CFU/ml, room temperature.
Excerpt: as §1

In test [2] the test system is environmental Micrococcus Luteus. In words: Full AET challenge test. The settings on record: spike 10^5-10^6 CFU/ml, room temperature.
Excerpt: as §1, §2

Structures are written as SMILES.

As to `CN[C@]1(c2ccccc2Cl)CCCCC1=O.Cl` [S-ketamine hydrochloride, (S)-2-(2-chlorophenyl)-2-(methylamino)cyclohexanone hydrochloride], the “Antimicrobial effect in words (change of the original spike)” value is reported as “some inhibitory activity” in the test on Aspergillus brasiliensis; “strong antimicrobial properties” in the test on Candida albicans; “strong antimicrobial properties” in the test on Escherichia coli; “strong antimicrobial properties” in the test with Pseudomonas aeruginosa; “strong antimicrobial properties” in the test on Staphylococcus aureus; “strong antimicrobial properties” in test [1]. Further, the “Antimicrobial effect in words (change of the original spike)” value in test [2] is “strong antimicrobial properties”.
